In ChEMBL document CHEMBL1201862, “PubChem BioAssay data set” (2004):
Active and inactive are the calls of the source.

Key:
CAAX prenyl protease 2 = target: T1, CAAX prenyl protease 2 (Saccharomyces cerevisiae S288c, UniProt Q03530); format: biochemical
T1 sequence (Q03530 whole entry): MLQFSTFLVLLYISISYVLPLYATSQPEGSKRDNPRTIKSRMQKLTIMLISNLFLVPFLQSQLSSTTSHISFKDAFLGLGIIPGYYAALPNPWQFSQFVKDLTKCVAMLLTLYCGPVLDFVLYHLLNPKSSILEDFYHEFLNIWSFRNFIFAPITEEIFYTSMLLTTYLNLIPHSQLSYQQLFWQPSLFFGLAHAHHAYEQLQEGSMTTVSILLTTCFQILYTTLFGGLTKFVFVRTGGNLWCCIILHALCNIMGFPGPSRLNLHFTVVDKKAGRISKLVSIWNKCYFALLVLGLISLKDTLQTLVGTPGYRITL

[1] = viability of uninfected HEp-2 cells – cell-based, HTS, cytotoxicity control for RSV inhibitor project, dose response (AID 2410); format: functional; settings: human respiratory syncytial virus
cells [2] = assay: cells
Leucine aminopeptidase = target: T2, Leucine aminopeptidase (Plasmodium falciparum 3D7, UniProt Q8IL11); assay: P. falciparum M17LAP inhibitors, primary screen, biochemical, fluorogenic H-Leu-NHMec substrate, 1536-well (AID 1619); format: functional
T2 sequence (Q8IL11 whole entry): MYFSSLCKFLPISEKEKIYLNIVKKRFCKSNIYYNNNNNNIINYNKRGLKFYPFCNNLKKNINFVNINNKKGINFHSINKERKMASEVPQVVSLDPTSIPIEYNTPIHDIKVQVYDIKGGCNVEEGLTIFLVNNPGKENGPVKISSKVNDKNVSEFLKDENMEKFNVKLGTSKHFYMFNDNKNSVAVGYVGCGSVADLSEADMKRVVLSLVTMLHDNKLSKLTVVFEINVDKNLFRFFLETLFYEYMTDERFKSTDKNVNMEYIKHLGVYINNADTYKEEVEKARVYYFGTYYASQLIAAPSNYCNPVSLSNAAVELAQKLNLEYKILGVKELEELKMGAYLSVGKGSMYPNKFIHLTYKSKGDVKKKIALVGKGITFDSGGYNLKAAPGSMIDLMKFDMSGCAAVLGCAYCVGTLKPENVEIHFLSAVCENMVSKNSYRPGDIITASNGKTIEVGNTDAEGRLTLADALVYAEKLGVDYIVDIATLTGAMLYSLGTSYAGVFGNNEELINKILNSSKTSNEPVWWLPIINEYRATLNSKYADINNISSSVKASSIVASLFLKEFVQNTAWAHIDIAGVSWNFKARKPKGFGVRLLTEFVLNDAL

cells [3] = format: functional
[4] = THP-1 cell cytotoxicity, dose response, cytotoxicity control for non-replicating M. tuberculosis project (AID 489025); format: functional
[5] = viability loss of HPDE-C7K cells – cell-based, fluorescence, HTS, primary screen (AID 431); format: functional; settings: Homo sapiens
[6] = HPDE-C7 pancreatic duct cell viability loss – fluorescence, HTS (AID 430); format: functional, cell-based; settings: Homo sapiens
Mucolipin-3 = target: T3, Mucolipin-3 (Homo sapiens, UniProt Q8TDD5); assay: Dose response cell-based high-throughput screening assay for agonists of the transient receptor potential channel ML3 (TRPML3). [Related pubchem assays: 1526, 1424, 1448 ]; format: functional
T3 sequence (Q8TDD5 whole entry): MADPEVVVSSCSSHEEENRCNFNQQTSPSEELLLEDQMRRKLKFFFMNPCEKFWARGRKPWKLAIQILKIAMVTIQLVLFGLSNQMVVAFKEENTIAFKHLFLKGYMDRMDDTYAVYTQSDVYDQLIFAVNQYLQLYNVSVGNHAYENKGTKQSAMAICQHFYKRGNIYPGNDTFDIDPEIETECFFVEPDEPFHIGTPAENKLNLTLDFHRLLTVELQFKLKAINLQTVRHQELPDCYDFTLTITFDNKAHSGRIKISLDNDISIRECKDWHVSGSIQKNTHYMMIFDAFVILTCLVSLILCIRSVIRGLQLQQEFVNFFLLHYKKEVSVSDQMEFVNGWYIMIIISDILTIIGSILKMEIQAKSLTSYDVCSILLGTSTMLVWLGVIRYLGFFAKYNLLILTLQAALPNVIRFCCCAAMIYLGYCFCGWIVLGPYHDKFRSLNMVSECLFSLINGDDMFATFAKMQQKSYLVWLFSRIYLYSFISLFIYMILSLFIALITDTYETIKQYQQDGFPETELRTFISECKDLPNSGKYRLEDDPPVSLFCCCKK

Ion channel NompC = Ion channel NompC (Danio rerio, UniProt Q7T1G6); assay: Fluorescence counterscreen assay for TRPML3 agonists: dose response cell-based high-throughput screening assay to identify agonists of the transient receptor potential channel N1 (TRPN1). [Related pubchem assays: 1526, 1424, 1448 ]; format: functional
Estrogen receptor = target: T4, Estrogen receptor (Homo sapiens, UniProt P03372);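 note: potency for inhibiting coactivator peptide recruitment to the receptor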
T4 sequence (P03372 whole entry): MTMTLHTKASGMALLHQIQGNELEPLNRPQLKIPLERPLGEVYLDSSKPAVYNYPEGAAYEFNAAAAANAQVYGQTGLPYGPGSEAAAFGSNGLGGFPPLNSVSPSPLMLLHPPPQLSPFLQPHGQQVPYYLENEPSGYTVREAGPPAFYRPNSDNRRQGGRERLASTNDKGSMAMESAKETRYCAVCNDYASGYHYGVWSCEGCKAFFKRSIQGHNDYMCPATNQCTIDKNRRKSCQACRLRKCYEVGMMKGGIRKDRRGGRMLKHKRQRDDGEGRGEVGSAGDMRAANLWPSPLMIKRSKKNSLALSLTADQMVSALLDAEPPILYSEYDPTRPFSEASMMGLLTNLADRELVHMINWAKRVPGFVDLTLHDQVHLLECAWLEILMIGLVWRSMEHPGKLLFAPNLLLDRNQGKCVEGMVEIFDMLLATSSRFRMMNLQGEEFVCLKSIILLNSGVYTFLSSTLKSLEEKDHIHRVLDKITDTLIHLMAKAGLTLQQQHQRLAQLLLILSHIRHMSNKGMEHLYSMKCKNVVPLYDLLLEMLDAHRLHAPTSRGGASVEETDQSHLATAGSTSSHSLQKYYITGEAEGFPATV

[7] = A Cell Based Secondary Assay To Explore Cytotoxicity of Compounds that Sensitize Mycobacterium Tuberculosis to Beta-Lactam Antibiotics.; format: functional
H9c2 = assay: cells; format: functional, cell-based; settings: Rattus norvegicus, H9c2, Myocardium;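 note: confirmatory concentration-response retest of ultra-high-throughput screening hits for modulation of myocardial damage; cell death induced by hydrogen peroxide oxidative stress; compound pretreatment for 60 min then peroxide exposure for 2 h; potency is for protecting the cells against peroxide damage rather than for killing them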
[8] = target: T5, Calpain-2 catalytic subunit (Sus scrofa, UniProt P43367); assay: m-calpain protease blockers, concentration series – biochemical, fluorogenic peptide substrate, dose response (AID 1420); format: functional
T5 sequence (P43367 whole entry): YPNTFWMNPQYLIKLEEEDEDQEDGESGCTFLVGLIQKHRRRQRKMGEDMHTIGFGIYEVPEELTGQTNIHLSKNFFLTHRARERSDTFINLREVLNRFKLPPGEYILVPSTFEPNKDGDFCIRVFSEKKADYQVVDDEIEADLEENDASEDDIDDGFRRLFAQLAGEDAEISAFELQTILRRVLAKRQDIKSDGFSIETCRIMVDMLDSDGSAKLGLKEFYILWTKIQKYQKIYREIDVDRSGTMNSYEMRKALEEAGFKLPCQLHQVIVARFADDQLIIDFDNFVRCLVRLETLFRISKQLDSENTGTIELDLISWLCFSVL

[9] = target: T6, Heat shock factor protein 1 (Mus musculus, UniProt P38532); assay: decrease of HSF1-responsive luciferase luminescence – cell-based, NIH3T3, dose retest, confirmation (AID 2382); format: functional;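 note: NIH3T3 fibroblasts with HSF1-driven luciferase reporter stressed by proteasome inhibitor MG132; luminescence from HSF1-driven luciferase expression after 8 hours of MG132 stress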
T6 sequence (P38532 whole entry): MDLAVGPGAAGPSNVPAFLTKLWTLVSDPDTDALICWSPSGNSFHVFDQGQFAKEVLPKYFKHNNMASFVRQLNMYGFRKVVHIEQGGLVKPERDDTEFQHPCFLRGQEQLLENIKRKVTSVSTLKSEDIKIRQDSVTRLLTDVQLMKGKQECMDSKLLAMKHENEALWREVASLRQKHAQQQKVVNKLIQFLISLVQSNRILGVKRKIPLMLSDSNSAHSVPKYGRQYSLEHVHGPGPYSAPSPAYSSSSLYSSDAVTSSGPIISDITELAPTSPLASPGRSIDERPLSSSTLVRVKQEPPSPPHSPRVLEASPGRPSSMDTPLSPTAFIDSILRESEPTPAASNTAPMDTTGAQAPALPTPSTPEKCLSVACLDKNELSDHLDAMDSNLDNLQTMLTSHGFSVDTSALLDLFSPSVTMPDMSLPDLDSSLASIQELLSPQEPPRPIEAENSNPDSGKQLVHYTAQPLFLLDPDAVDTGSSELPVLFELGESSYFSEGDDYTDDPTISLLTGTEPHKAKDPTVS

Cytochrome P450 2D6 = Cytochrome P450 2D6 (Homo sapiens, UniProt P10635);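 note: CYP2D6 member of a cytochrome P450 panel assay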
[10] = NIH3T3 cell viability loss – ATP luminescence, mouse fibroblasts, counter-screen, dose response (AID 2010); format: functional, cell-based;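 note: cells exposed to compound for about 90 hours before reading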
[11] = Trypanosoma cruzi growth suppression in host cells – NIH3T3 host cells, beta-gal luminescence, confirmation (AID 2044); format: functional, cell-based;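 note: intracellular parasites grown in NIH/3T3 mouse fibroblasts as host cells; luminescent beta-galactosidase reporter signal from transgenic T. cruzi replicating inside host cells; inhibitors lower the luminescence signal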
INS1 = assay: INS-1E survival protection against cytokine death – cell-based, luminescence, retest, dose response (AID 449756); format: functional; settings: Rattus norvegicus;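 note: cell death triggered by IL-1 beta plus TNF-alpha plus IFN-gamma mixture; protective hits raise ATP signal compared with cytokine alone wells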
[12] = target: T7, DNA repair protein RAD52 homolog (Homo sapiens, UniProt P43351); format: functional, biochemical
T7 sequence (P43351 whole entry): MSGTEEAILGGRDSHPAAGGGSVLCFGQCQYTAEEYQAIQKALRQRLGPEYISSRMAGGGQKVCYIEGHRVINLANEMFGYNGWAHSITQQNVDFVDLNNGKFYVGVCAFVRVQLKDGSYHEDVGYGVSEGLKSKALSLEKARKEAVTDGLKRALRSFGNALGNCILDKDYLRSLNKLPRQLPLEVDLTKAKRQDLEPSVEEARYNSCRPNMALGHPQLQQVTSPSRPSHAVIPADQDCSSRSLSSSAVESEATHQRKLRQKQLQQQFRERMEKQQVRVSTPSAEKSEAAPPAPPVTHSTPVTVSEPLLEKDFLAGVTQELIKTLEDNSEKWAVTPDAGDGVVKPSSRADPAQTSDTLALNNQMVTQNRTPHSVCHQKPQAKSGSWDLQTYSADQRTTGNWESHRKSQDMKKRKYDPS

[13] = target: T8, Ubiquitin-conjugating enzyme E2 N (Homo sapiens, UniProt P61088); format: functional;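 note: Dose-response confirmation in a TR-FRET assay detecting UBC13-driven polyubiquitin chain formation, inhibition measured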
T8 sequence (P61088 whole entry): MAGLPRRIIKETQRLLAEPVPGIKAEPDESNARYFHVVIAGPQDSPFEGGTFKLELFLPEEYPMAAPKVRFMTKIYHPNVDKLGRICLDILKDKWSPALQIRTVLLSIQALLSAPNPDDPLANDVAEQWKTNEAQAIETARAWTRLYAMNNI

[14] = target: FAD-linked sulfhydryl oxidase ALR (Homo sapiens, UniProt P55789); assay: ALR-catalysed DTT oxidation blockers – biochemical, H2O2 detection, luminescence, cherry-pick, dose response (AID 493248)
Sequence of FAD-linked sulfhydryl oxidase ALR (P55789 whole entry): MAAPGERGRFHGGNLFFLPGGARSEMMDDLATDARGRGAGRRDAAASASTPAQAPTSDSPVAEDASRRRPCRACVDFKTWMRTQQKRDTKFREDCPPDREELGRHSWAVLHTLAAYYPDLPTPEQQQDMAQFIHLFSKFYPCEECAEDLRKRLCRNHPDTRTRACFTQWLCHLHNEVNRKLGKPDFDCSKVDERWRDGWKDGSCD

Sequence of Ion channel NompC (Q7T1G6 whole entry): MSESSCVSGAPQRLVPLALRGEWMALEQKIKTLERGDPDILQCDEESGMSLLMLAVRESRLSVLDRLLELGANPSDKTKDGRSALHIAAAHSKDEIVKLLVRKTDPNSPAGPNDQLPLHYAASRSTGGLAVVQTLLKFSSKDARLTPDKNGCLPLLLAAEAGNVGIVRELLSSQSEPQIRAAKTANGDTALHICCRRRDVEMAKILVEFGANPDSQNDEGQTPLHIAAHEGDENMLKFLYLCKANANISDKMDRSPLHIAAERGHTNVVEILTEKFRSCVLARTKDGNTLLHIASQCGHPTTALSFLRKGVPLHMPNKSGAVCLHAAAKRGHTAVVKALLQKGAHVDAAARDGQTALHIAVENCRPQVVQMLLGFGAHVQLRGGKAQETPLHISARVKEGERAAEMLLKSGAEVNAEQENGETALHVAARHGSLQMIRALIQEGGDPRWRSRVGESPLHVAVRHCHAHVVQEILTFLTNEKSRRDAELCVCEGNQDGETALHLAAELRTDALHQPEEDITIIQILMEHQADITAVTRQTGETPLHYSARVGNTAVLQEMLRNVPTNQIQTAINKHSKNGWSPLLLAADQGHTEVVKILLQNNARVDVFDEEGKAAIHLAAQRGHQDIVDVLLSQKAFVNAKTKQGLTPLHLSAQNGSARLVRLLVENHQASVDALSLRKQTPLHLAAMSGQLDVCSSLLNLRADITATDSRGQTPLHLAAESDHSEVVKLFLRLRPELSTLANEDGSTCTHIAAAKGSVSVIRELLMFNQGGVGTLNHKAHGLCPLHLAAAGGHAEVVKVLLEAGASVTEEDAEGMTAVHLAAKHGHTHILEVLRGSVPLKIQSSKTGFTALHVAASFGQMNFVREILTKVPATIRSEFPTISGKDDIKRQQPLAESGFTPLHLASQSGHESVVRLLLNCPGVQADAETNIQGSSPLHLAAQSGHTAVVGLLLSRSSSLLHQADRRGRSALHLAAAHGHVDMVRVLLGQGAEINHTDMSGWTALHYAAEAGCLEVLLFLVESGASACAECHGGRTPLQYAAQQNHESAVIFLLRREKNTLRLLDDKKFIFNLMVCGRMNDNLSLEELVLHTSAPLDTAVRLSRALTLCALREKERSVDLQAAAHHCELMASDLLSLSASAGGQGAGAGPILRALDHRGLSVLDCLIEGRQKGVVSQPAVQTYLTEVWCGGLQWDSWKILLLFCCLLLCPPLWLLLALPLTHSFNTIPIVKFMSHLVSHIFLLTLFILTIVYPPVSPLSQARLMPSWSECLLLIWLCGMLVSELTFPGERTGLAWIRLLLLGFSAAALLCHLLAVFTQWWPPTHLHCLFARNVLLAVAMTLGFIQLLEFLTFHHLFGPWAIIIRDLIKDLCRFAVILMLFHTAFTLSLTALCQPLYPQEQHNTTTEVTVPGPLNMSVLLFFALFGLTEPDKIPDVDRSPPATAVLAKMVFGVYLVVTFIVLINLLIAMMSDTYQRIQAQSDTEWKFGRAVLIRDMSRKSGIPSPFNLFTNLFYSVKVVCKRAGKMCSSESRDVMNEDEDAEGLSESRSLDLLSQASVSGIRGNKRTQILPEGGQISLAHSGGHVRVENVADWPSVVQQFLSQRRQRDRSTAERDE
Sequence of Cytochrome P450 2D6 (P10635 whole entry): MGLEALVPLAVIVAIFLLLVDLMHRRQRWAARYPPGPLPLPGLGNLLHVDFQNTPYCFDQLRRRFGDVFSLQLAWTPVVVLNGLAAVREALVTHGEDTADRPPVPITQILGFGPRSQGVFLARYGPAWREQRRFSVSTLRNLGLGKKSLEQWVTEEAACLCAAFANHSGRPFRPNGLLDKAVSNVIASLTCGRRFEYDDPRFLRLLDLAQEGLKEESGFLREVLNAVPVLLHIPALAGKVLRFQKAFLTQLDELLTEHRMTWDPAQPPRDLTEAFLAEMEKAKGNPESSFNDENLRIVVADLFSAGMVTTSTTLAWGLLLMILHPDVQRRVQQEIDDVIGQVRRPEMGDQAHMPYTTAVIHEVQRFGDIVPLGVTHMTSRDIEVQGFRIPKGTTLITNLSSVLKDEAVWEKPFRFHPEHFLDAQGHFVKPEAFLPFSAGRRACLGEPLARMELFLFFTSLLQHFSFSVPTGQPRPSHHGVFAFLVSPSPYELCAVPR

Structure (SMILES): COc1ccc(-n2nc(C(=O)NCC(=O)N(C)Cc3ccccc3)c3ccccc3c2=O)cc1
- AC50 (CAAX prenyl protease 2): 70.8 µM (active)

Structure (SMILES): O=S(=O)(c1ccccc1)N1CCC(c2nc(O)c3nnn(Cc4ccc5c(c4)OCCO5)c3n2)CC1
- CC50 [1]: 28.4 µM (active)
- IC50 (cells [2]): 18.4 µM (active)

Structure (SMILES): O=C(N/N=C/c1ccccc1C(=O)O)c1ccc(COc2cccc3cccnc23)cc1
- IC50 (Leucine aminopeptidase): 18.4 µM (active)

Structure (SMILES): C/C(N)=C(/C#N)C(=O)COC(=O)c1cccc(C)c1O
- IC50 (cells [2]): 9.45 µM (active)

Structure (SMILES): CC(CN1CCOCC1)OC(=O)c1ccc(Br)cc1 (stereo unspecified)
- IC50 (cells [3]): 5.68 µM (active)
- CC50 [4]: 38.2 µM (active)
- EC50 [5]: 9.11 µM (active)
- EC50 [6]: 6.73 µM (active)

Structure (SMILES): Cc1cc(C)c(S(=O)(=O)c2c(C)cccc2C)c(OCC(C)C)n1
- EC50 (Mucolipin-3): 4.35 µM (active)
- EC50 (Ion channel NompC): > 29.9 µM (not active)

Structure (SMILES): COc1ccc(C)cc1-n1nnnc1SCC(=O)NC(=O)NCc1ccco1
- IC50 (Estrogen receptor): 9.48 µM (active)

Structure (SMILES): COc1ccc(OC)c(S(=O)(=O)N2CCCc3ccccc32)c1
- EC50 (Mucolipin-3): 3.58 µM (active)
- EC50 (Ion channel NompC): > 29.9 µM (not active)

Structure (SMILES): O=C(CCNc1ccc(F)cc1)c1cccc([N+](=O)[O-])c1
- CC50 [7]: > 40 µM (active)

Structure (SMILES): COc1ccc(Br)cc1/C=N/NC(=O)CNC(=O)/C=C/c1ccccc1
- CC50 [7]: 32.1 µM (active)
- IC50 (H9c2): 15.3 µM (active)

Structure (SMILES): O=S(=O)(N1CCCCC1)N1CCN(c2cc(Cl)ccc2Cl)CC1
- IC50 [8]: 4.07 µM (not active)
- EC50 (Mucolipin-3): 2.07 µM (active)
- EC50 (Ion channel NompC): > 29.9 µM (not active)

Structure (SMILES): Cc1cccc(C)c1-n1c(C)cc(/C=C2\NC(=O)NC2=O)c1C
- CC50 [1]: 24.6 µM (active)
- IC50 (cells [2]): 8.7 µM (active)
- EC50 [9]: > 195 µM (not active)

Structure (SMILES): CC1CCN(Cc2c(C(=O)N/N=C/c3cccc(C(F)(F)F)c3)nnn2-c2nonc2N)CC1
- AC50 (CAAX prenyl protease 2): 0.254 µM (active)

Structure (SMILES): O=C(CN1CCN(S(=O)(=O)c2ccc(F)cc2)CC1)Nc1ccc(Cl)c(C(F)(F)F)c1
- AC50 (Cytochrome P450 2D6): 39.8 µM (inconclusive)
- CC50 [1]: 4.99 µM (active)
- EC50 (Mucolipin-3): 3.5 µM (active)
- EC50 (Ion channel NompC): > 29.9 µM (not active)

Structure (SMILES): Cc1ccc(C(=O)N/C(=C\c2ccc(-c3ccc(Cl)cc3)o2)C(=O)NCCCN(C)C)cc1
- EC50 [10]: > 30 µM (not active)
- EC50 [11]: 1.63 µM (active)
- CC50 [7]: 11.2 µM (active)
- AC50 (INS1): 7.74 µM (active)
- AC50 [12]: 18.5 µM (active)
- IC50 [13]: > 20 µM (inactive)

Structure (SMILES): Cc1[nH]c2ccccc2c1N=Nc1cccc(C(=O)O)c1
- AC50 [14]: 0.663 µM (active)
- IC50 (Leucine aminopeptidase): 80.8 µM (active)
